# From publication PMC11435625, “In Vitro Hepatic Clearance Evaluations of Per- and Polyfluoroalkyl Substances (PFAS) across Multiple Structural Categories” (Toxics, 2024)
# Experiments:
# plasma protein = conditions: fraction unbound in plasma, input for IVIVE calculations; cited from earlier work
# [1] = test system: pooled primary human hepatocyte suspensions; assay: Bayesian (MCMC, invitroTKstats) analysis of hepatic clearance data; conditions: for Clint.1.Med: Level-4 Bayesian estimate, posterior median, Clint.1 series (Clint.10 all NA)
# Source text: Markov Chain Monte Carlo was employed in a Bayesian analysis to estimate uncertainty of the hepatic clearance point measures as previously described, but with some modifications [10]. Briefly, after organizing PFAS-level data into a single file, the relationship between the relevant measurement process parameters was described in a graphic model in JAGS language [13] interfaced through R. For hepatic clearance data, the model describes the PFAS-specific mass spectrometric response factor between analyte peak ratio (to internal standard) and chemical concentration. […] The assumed prior for whether the chemical degraded abiotically in vitro followed a Bernoulli distribution with a 5% chance of abiotic degradation. Separate biotic and abiotic components for chemical elimination were estimated, each with a slope following an assumed uniform prior distribution bounded between the zero and the -log (limit of quantitation/Ctest). In scenarios where an external calibration without internal standard was used, the response factor was calculated using the analyte peak alone, introducing additional uncertainty due to the inability to normalize for recovery issues. The model was analyzed jointly by JAGS using five Markov chains. Convergence was identified by requiring the five chains to be consistent, as indicated by the potential scale reduction factor [14] being less than 1.1. The analysis was performed using EPA-developed R package invitroTKstats, available upon request.
# [2] = test system: pooled primary human hepatocyte suspensions; assay: Hepatic clearance assay (substrate depletion, LC-MS); conditions: in µL/min/10^6 cells; for CLint for HTTK: CLint value carried into HTTK/IVIVE; for in vitro CLint exp assay / Unadj Clint: pooled primary human hepatocyte suspensions; for Unadj Clint: unadjusted hepatic intrinsic clearance, Table S4
# In short: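 Substrate depletion at 1 μM PFAS in pooled cryopreserved human hepatocytes (~0.5 × 10^6 viable cells/mL, 50-donor pool), 37 °C with shaking, sampled 0–240 min in triplicate. Quantified by LC-MS in negative ion mode against matrix-matched calibration; media-only or heat-inactivated cells as nonmetabolic-loss controls.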
# [3] = IVIVE: steady-state concentration (Css), generic HTTK model; design: species or system human; conditions: for Css (mg/L) / Css (uM): Assuming 1 mg/kg/day dose rate, BW 70 kg; for CLhep: QL 1500000 uL/min; for Fub: fub=fup/(B:P), Fub set to 1 if needed; for CLint: scaled to whole liver: HPGL 110 mill cells/g, Vl 1596 g
# In short: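 Human Css estimated by IVIVE: plasma protein binding converted to blood fraction unbound via blood-to-plasma partitioning, and experimental Clint scaled with liver scalars to whole liver clearance. AEDs then derived by reverse dosimetry from Css and PFAS in vitro POD, defined as fifth-percentile AC50.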
Structure (SMILES),Mean fu (plasma protein),Clint.1.Med [1],CLint for HTTK [2],in vitro CLint exp assay [2],Css (mg/L) [3] [mg/L],Css (uM) [3] [µM],CLhep [3] [L/h],Fub [3],CLint [3] [µL/min],"metabolic clearance call, experimental and Bayesian analyses in agreement ([1]; both analyses agreed)",Unadj Clint [2]
O=S(=O)(O)CCC(F)(F)C(F)(F)C(F)(F)C(F)(F)C(F)(F)C(F)(F)F,0.0143,0,1.4,1.4,5.29,12.36,0.382,0.026,245784,–,–
O=C(O)C(F)(F)OC(F)(F)C(F)(F)OC(F)(F)F,0.0031,0,0,0,77.85,263.04,0.000,0.005636,0,–,–
O=C([O-])C(F)(F)C(F)(F)C(F)(F)C(F)(F)C(F)(F)C(F)(F)C(F)(F)F.[Na+] [Sodium perfluorooctanoate (NaPFOA)],0.0006,0,0,0,402.24,971.65,0.000,0.001091,0,–,–
O=S(=O)([O-])C(F)(F)C(F)(F)C(F)(F)C(F)(F)F.[K+],0.0046,0,0,0,52.47,174.92,0.000,0.008364,0,–,–
O=C(O)C(F)(F)C(F)(F)C(F)(F)C(F)(F)C(F)(F)C(F)(F)C(F)(F)C(F)(F)C(F)(F)C(F)F,0.0015,0,0,0,160.90,294.69,0.000,0.002727,0,–,–
CNS(=O)(=O)C(F)(F)C(F)(F)C(F)(F)C(F)(F)C(F)(F)C(F)(F)C(F)(F)C(F)(F)F [N-Methylperfluorooctanesulfonamide],–,–,–,–,–,–,–,–,–,metabolized,33.23
O=S(=O)([O-])C(F)(F)C(F)(F)C(F)(F)C(F)(F)C(F)(F)C(F)(F)F.[K+] [Potassium perfluorohexanesulfonate],–,0,–,–,–,–,–,–,–,–,0.00
O=S(=O)(O)C(F)(F)C(F)(F)OC(F)(F)C(F)(F)F [Perfluoro(2-ethoxyethane)sulfonic acid],0.0015,266,5.51,5.51,16.68,52.79,0.158,0.002727,967336,–,5.51
O=S(=O)(O)C(F)(F)C(F)(F)C(F)(F)C(F)(F)C(F)(F)C(F)(F)C(F)(F)C(F)(F)F [Perfluorooctanesulfonate],–,0,–,–,–,–,–,–,–,–,0.00
O=C(O)C(F)(F)C(F)(F)C(F)(F)C(F)(F)C(F)(F)C(F)(F)C(F)(F)C(F)F [9-H-Perfluorononanoic acid (9H-PFNA)],0.0009,0,0,0,268.16,601.28,0.000,0.001636,0,–,–
O=C(O)C(F)(F)C(F)(F)C(F)(F)F [Perfluorobutanoic acid (PFBA)],0.093,0,0,0,2.60,12.13,0.000,0.1691,0,–,–
O=C(Cl)C(F)(F)C(F)(F)C(F)(F)C(F)(F)C(F)(F)C(F)(F)F [Perfluoroheptanoyl chloride],–,0,–,–,–,–,–,–,–,–,0.00
O=S(=O)(O)CCC(F)(F)C(F)(F)C(F)(F)C(F)(F)C(F)(F)C(F)(F)C(F)(F)C(F)(F)F,0.0396,0,1.53,1.53,1.81,3.42,1.146,0.072,268607,–,–
O=C(O)C(F)(F)C(F)(F)OC(F)(F)F [Perfluoro-3-methoxypropanoic acid],–,0,–,–,–,–,–,–,–,–,0.00
O=C(O)C(F)(F)C(F)(F)C(F)(F)C(F)(F)C(F)(F)C(F)(F)C(F)(F)C(F)(F)C(F)(F)F [Perfluorodecanoic acid (PFDA)],0.0027,0,0,0,89.39,173.91,0.000,0.004909,0,–,–
O=C(O)C(F)(F)C(F)(F)C(F)(F)C(F)(F)C(F)(F)C(F)(F)F [Perfluoroheptanoic acid (PFHpA)],0.0004,0,0,3.12,603.36,1657.68,0.000,0.0007273,0,–,–
O=C(O)C(F)(F)C(F)(F)C(F)(F)C(F)(F)C(F)(F)C(F)(F)C(F)(F)C(F)(F)C(F)(F)C(F)(F)F [Perfluoroundecanoic acid (PFUnDA)],0.0116,0,0,0,20.81,36.89,0.000,0.02109,0,–,–
O=C(O)CCC(F)(F)C(F)(F)C(F)(F)C(F)(F)C(F)(F)F,0.0059,19,11.84,11.84,2.11,6.18,1.318,0.01073,2078630,–,–
O=S(=O)(O)CCC(F)(F)C(F)(F)C(F)(F)C(F)(F)F,0.005,0,4.28,4.28,6.27,19.12,0.408,0.009091,751397,–,–
O=C(Cl)C(F)(F)C(F)(F)C(F)(F)C(F)(F)C(F)(F)C(F)(F)C(F)(F)F [Pentadecafluorooctanoyl chloride],–,0,–,–,–,–,–,–,–,–,0.00
O=C(O)CCC(F)(F)C(F)(F)C(F)(F)F [3:3 Fluorotelomer carboxylic acid],–,0,–,–,–,–,–,–,–,–,0.00
NS(=O)(=O)C(F)(F)C(F)(F)C(F)(F)C(F)(F)C(F)(F)C(F)(F)F [Perfluorohexanesulfonamide],–,0,–,–,–,–,–,–,–,–,0.00
